Laboratory results from patent US12441730B2, “PRMT5 inhibitors” (Merck Sharp & Dohme LLC, priority 2019, dated 2025).
Read-outs that look alike come from different tables or passages of the source.

Experiments:
[1] = target: T1, Full-length (FL)-PRMT5-MEP50 enzyme complex (Homo sapiens, UniProt O14744); experiment: PRMT5-MEP50 Enzyme Methylation Assay (Version A); assay type: biochemical
T1 construct: Full-length (FL)-PRMT5-MEP50 enzyme complex (recombinant proteins from baculovirus-transfected Sf21 cells: FL-PRMT5; MW=73837 kDa and FL-MEP50; MW=38614); made in house; host or cells: baculovirus-transfected Sf21 cells
How it was run: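 Compound was pre-incubated with enzyme for 60 min, then reacted 150 min at 37° C. at final 1.0 nM PRMT5-MEP50, 15 μM SAM and 75 nM biotinylated H4R3(Me1) peptide, in 50 mM Bicine pH 8.0 with 1% DMSO. SAMDI mass-spectrometric readout of Me1→Me2 conversion. EC50 from 4- or 7-parameter regression.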

[2] = system: symmetric dimethylation of arginine (SDMA) of PRMT5 substrates in MCF-7 cells; experiment: PRMT5 Cell Target Engagement (TE) Assay; assay type: cell-based; settings: 3 days treatment, SDMA high content imaging
How it was run: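 Readout is single-cell nuclear symmetric-dimethylarginine immunofluorescence (Alexa488), normalized to DMSO-treated cells. Compounds were applied to MCF-7 cells for 3 days at 37 °C, top concentration 10000 nM in 1:3 steps over ten points; curves fitted with 4-parameter robust fit.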

[3] = single EC50 = 4 parameter single site sigmoidal fit, EC50 1 = first value of 7 parameter biphasic fit, read-out: Enzyme Methylation Assay Version A (EC50 or EC50 1)
[4] = second value of 7 parameter biphasic fit, read-out: Enzyme Methylation Assay Version A (EC50 2)

T1 sequence (O14744 whole entry): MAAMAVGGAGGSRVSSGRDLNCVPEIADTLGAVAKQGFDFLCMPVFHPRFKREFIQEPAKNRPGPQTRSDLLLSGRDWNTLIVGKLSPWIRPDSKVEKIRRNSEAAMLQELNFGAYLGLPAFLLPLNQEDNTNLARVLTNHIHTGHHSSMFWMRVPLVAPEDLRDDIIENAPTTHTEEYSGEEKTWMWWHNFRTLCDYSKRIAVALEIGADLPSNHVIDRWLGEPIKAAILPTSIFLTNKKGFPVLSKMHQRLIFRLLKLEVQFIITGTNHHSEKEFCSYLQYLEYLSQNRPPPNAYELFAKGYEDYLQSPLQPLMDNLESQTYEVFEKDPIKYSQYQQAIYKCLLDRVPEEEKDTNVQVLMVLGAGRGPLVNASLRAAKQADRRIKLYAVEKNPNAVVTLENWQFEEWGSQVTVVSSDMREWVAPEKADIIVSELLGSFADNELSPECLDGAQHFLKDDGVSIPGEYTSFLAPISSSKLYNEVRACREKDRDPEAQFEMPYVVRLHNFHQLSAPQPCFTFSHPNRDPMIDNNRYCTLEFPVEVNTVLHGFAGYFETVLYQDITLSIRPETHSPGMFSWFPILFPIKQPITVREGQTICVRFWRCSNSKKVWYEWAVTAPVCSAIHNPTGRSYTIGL
T1 sequence (Q9BQA1 whole entry partner): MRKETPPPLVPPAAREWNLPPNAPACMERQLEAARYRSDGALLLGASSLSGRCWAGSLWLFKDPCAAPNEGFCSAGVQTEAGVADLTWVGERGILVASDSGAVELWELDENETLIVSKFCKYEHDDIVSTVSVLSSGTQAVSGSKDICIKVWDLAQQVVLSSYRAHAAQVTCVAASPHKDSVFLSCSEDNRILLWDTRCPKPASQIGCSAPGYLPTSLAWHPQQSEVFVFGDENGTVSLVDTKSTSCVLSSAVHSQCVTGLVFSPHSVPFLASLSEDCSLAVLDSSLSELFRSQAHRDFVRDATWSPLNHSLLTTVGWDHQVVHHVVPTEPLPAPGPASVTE

Row | Structure (SMILES) | EC50 [1, 3] | EC50 ([2]; Homo sapiens, MCF7, 72 h) | EC50 [1, 4] | EC50 [2]
1 | COCc1cc(Br)cn2cc(C(=O)N3CC[C@]4(Cc5ccccc5CN4)[C@H](O)C3)nc12 [Example 28, (6-bromo-8-(methoxymethyl)imidazo[1,2-a]pyridin-2-yl)((3R,3’R)-3′-hydroxy-1,4-dihydro-2H-spiro[isoquinoline-3,4′-piperidin]-1′-yl)methanone] | 0.816 nM | 2.75 nM |  | 
2 | CC(O)c1cc(C(F)(F)F)cn2cc(C(=O)N3CC[C@]4(Cc5ccccc5CN4)[C@H](O)C3)nc12 (single isomer, unassigned) [Example 109] | 0.276 nM |  | 126 nM | 8.28 nM
3 | O=C(c1cn2cc(Br)cc(I)c2n1)N1CC[C@]2(Cc3ccccc3CN2)[C@H](O)C1 [Example 7] | 0.639 nM | 0.545 nM | 52.5 nM | 
4 | CO[C@H](C)c1cc(-c2cncs2)cn2cc(C(=O)N3CC[C@]4(Cc5ccccc5CN4)[C@H](O)C3)nc12 [Example 241, [(3R,3′R)-3′-hydroxy-1,4-dihydro-1′H,2H-spiro[isoquinoline-3,4′-piperidin]-1′-yl]{8-[(1R)-1-methoxyethyl]-6-(1,3-thiazol-5-yl)imidazo[1,2-a]pyridin-2-yl}methanone] | 0.932 nM | 4.87 nM | 211 nM | 
5 | O=C(c1cn2cccc(Br)c2n1)N1CC[C@]2(Cc3ccccc3CN2)[C@H](O)C1 [Example 209, (8-bromoimidazo[1,2-a]pyridin-2-yl)[(3R,3′R)-3′-hydroxy-1,4-dihydro-1′H,2H-spiro[isoquinoline-3,4′-piperidin]-1′-yl]methanone] | 3.74 nM | 256 nM | 3890 nM | 
6 | CC(C)(O)COc1nc(Br)cn2cc(C(=O)N3CC[C@]4(Cc5ccccc5CN4)[C@H](O)C3)nc12 [Example 20, (6-bromo-8-(2-hydroxy-2-methylpropoxy)imidazo[1,2-a]pyrazin-2-yl)((3R,3’R)-3′-hydroxy-1,4-dihydro-2H-spiro[isoquinoline-3,4′-piperidin]-1′-yl)methanone] | 0.438 nM | 16.5 nM | 151 nM | 
7 | CC(O)c1cc(Br)cn2cc(C(=O)N3CC[C@]4(Cc5ccccc5CN4)[C@H](O)C3)nc12 (single isomer, unassigned) [Example 32, (6-bromo-8-((R or S)-1-hydroxyethyl)imidazo[1,2-a]pyridin-2-yl)((3R,3’R)-3′-hydroxy-1,4-dihydro-2H-spiro[isoquinoline-3,4′-piperidin]-1′-yl)methanone] | 0.844 nM | 5.15 nM | 282 nM | 
8 | Cc1cc(Cl)c2nc(C(=O)N3CC[C@]4(Cc5ccccc5CN4)[C@H](O)C3)cn2c1 [Example 207, (8-chloro-6-methylimidazo[1,2-a]pyridin-2-yl)[(3R,3′R)-3′-hydroxy-1,4-dihydro-1′H,2H-spiro[isoquinoline-3,4′-piperidin]-1′-yl]methanone] | 0.382 nM | 27.6 nM | 288 nM | 
9 | Cc1ccnc2nc(C(=O)N3CC[C@]4(Cc5ccccc5CN4)[C@H](O)C3)cn12 [Example 124, [(3R,3′R)-3′-hydroxy-1,4-dihydro-1′H,2H-spiro[isoquinoline-3,4′-piperidin]-1′-yl](5-methylimidazo[1,2-a]pyrimidin-2-yl)methanone] | 8.49 nM | 3320 nM | 2420 nM | 
10 | Cc1cnc2nc(C(=O)N3CC[C@]4(Cc5ccccc5CN4)[C@H](O)C3)cn2c1 [Example 120, [(3R,3′R)-3′-hydroxy-1,4-dihydro-1′H,2H-spiro[isoquinoline-3,4′-piperidin]-1′-yl](6-methylimidazo[1,2-a]pyrimidin-2-yl)methanone] | 0.499 nM | 28.8 nM | 351 nM | 
11 | Cc1ccc(C(=O)N2CC[C@]3(Cc4ccccc4CN3)[C@H](O)C2)c(O)n1 [Example 219, 3-{[(3R,3′R)-3′-hydroxy-1,4-dihydro-1′H,2H-spiro[isoquinoline-3,4′-piperidin]-1′-yl]carbonyl}-6-methyl-2(1H)-pyridinone] | 204 nM | 4160 nM | 17400 nM | 
12 | O=C(c1cn2cc(Cl)cnc2n1)N1CC[C@]2(Cc3ccccc3CN2)[C@H](O)C1 [Example 3, (6-chloroimidazo[1,2-a]pyrimidin-2-yl)((3R,3′R)-3′-hydroxy-1,4-dihydro-2H-spiro[isoquinoline-3,4′-piperidin]-1′-yl)methanone] | 1.45 nM | 14.5 nM | 918 nM | 
13 | O=C(c1cn2cc(C(F)(F)F)cc(Cl)c2n1)N1CC[C@]2(Cc3ccccc3CN2)[C@H](O)C1 [Example 211, [8-chloro-6-(trifluoromethyl)imidazo[1,2-a]pyridin-2-yl][(3R,3′R)-3′-hydroxy-1,4-dihydro-1′H,2H-spiro[isoquinoline-3,4′-piperidin]-1′-yl]methanone] | 0.191 nM | 7.99 nM | 71.6 nM | 
14 | O=C(c1cn2cc(Br)cc(F)c2n1)N1CC[C@]2(Cc3ccccc3CN2)[C@H](O)C1 [Example 217, (6-bromo-8-fluoroimidazo[1,2-a]pyridin-2-yl)[(3R,3′R)-3′-hydroxy-1,4-dihydro-1′H,2H-spiro[isoquinoline-3,4′-piperidin]-1′-yl]methanone] | 0.73 nM | 11.3 nM | 40.3 nM | 
15 | CC1CC(C(F)(F)F)Cn2cc(C(=O)N3CC[C@]4(Cc5ccccc5CN4)[C@H](O)C3)nc21 (single isomer, unassigned) [Example 167, ((3R,3′R)-3′-hydroxy-1,4-dihydro-2H-spiro[isoquinoline-3,4′-piperidin]-1′-yl)((6R,8R or 6S,8S)-8-methyl-6-(trifluoromethyl)-5,6,7,8-tetrahydroimidazo[1,2-a]pyridin-2-yl)methanone] | 9.55 nM |  | 3630 nM | 194 nM
16 | Cc1ccc2c(c1)CN[C@@]1(CCN(C(=O)c3cn4cc(C5CC5)cnc4n3)C[C@H]1O)C2 [Example 228] | 144 nM | 254 nM |  | 
17 | O=C(c1cn2c(n1)CCC(C(F)(F)F)C2)N1CC[C@]2(Cc3ccccc3CN2)[C@H](O)C1 (stereo partly drawn) [Example 54, [(3R,3′R)-3′-hydroxy-1,4-dihydro-1′H,2H-spiro[isoquinoline-3,4′-piperidin]-1′-yl][6-(trifluoromethyl)-5,6,7,8-tetrahydroimidazo[1,2-a]pyridin-2-yl]methanone] | 8.01 nM | 169 nM | 2660 nM | 
18 | O=C(c1cn2cc(Br)cc(N3CCCC3=O)c2n1)N1CC[C@]2(Cc3ccccc3CN2)[C@H](O)C1 [Example 14, 1-(6-bromo-2-((3R3’R)-3′-hydroxy-1,4-dihydro-2H-spiro[isoquinoline-3,4′-piperidine]-1′-carbonyl)imidazo[1,2-a]pyridin-8-yl)pyrrolidin-2-one] | 100 nM | 547 nM | 57500 nM | 
19 | O=C(c1ccc2c(O)c(C3CC3)cnc2c1)N1CC[C@]2(Cc3ccccc3CN2)[C@H](O)C1 [Example 9, (3-cyclopropyl-4-hydroxyquinolin-7-yl)((3R,3’R)-3′-hydroxy-1,4-dihydro-1′H,2H-spiro[isoquinoline-3,4′-piperidin]-1′-yl)methanone] | 13.5 nM | 694 nM | 4680 nM | 
20 | O=C(c1nc2cc(Cl)ccn2n1)N1CC[C@]2(Cc3ccccc3CN2)[C@H](O)C1 [Example 18] | 63.1 nM | 1010 nM | 57500 nM | 
21 | O=C(c1cn(C(F)F)cn1)N1CC[C@]2(Cc3ccccc3CN2)[C@H](O)C1 [Example 224, [1-(difluoromethyl)-1H-imidazol-4-yl][(3R,3′R)-3′-hydroxy-1,4-dihydro-1′H,2H-spiro[isoquinoline-3,4′-piperidin]-1′-yl]methanone] | 3510 nM | ≥ 10000 nM | 66800 nM | 
22 | CO[C@H](C)c1cc(-c2ccnn2C(C)C)cn2cc(C(=O)N3CC[C@]4(Cc5ccccc5CN4)[C@H](O)C3)nc12 [Example 243, [(3R,3′R)-3′-hydroxy-1,4-dihydro-1′H,2H-spiro[isoquinoline-3,4′-piperidin]-1′-yl]{6-(1-isopropyl-1H-pyrazol-5-yl)-8-[(1R)-1-methoxyethyl]imidazo[1,2-a]pyridin-2-yl}methanone] | 1.17 nM | 3.59 nM |  | 
23 | COCCN(C)c1cc([C@@H](C)OC)c2nc(C(=O)N3CC[C@]4(Cc5ccccc5CN4)[C@H](O)C3)cn2c1 [Example 229, [(3R,3′R)-3′-hydroxy-1,4-dihydro-1′H,2H-spiro[isoquinoline-3,4′-piperidin]-1′-yl]{8-[(1R)-1-methoxyethyl]-6-[(2-methoxyethyl)(methyl)amino]imidazo[1,2-a]pyridin-2-yl}methanone] | 0.602 nM | 22.6 nM | 234 nM | 
24 | O=C(c1cn2ncc(Br)cc2n1)N1CC[C@]2(Cc3ccccc3CN2)[C@H](O)C1 [Example 71, (7-bromoimidazo[1,2-b]pyridazin-2-yl)[(3R,3′R)-3′-hydroxy-1,4-dihydro-1′H,2H-spiro[isoquinoline-3,4′-piperidin]-1′-yl]methanone] | 135 nM | 1500 nM | 8320 nM | 
25 | O=C1CCCN1CCOc1nc(Br)cn2cc(C(=O)N3CC[C@]4(Cc5ccccc5CN4)[C@H](O)C3)nc12 [Example 13, 1-(2-((6-bromo-2-((3R,3’R)-3′-hydroxy-1,4-dihydro-2H-spiro[isoquinoline-3,4′-piperidine]-1′-carbonyl)imidazo[1,2-a]pyrazin-8-yl)oxy)ethyl)pyrrolidin-2-one] | 0.406 nM | 8.16 nM | 320 nM | 
